Measurements taken from publication PMC12720098, “Prolintane analogs as hybrid monoamine transporter ligands: Structural determinants and species differences” (The Journal of Biological Chemistry, 2025).
Where two headings read alike, the source gives them in different places.

Legend:
hSERT [1] = target: T1, hSERT (Homo sapiens, UniProt P31645); assay: Uptake inhibition assay ([3H]5-HT) in transfected HEK293 cells; type: cell-based
T1 construct: expressed in transfected cells
Description: HEK293 cells stably expressing human monoamine transporters hSERT, hDAT or hNET were seeded into poly-D-lysine (PDL) coated 96-well plates with a density of approximately 36,000 cells per well 1 day prior to experiments. A day after seeding, the cell medium was replaced with 200 μl Krebs-HEPES-buffer (KHB; 120 mM NaCl, 3 mM KCl, 2 mM CaCl2·2H2O, 2 mM MgCl2·6H2O, 20 mM D-glucose, pH = 7.3). The test drugs were initially dissolved in Milli-Q H2O or dimethyl sulfoxide (DMSO) at a concentration of 10 to 100 mM. Then, cells were treated with the respective concentration of the test drug diluted in KHB for 5 min as a pre-incubation step. Subsequently, in the uptake step, the solution was replaced with 50 μl/well diluted drug solution and tritiated substrate (hDAT: 0.1 μM [^3H]DA; hNET: 0.02 μM [^3H]MPP^+; hSERT: 0.1 μM [^3H]5-HT) for 1 min (hDAT, hSERT) or 3 min (hNET). After incubation, cells were immediately washed with 200 μl KHB to stop uptake. Uptake was indirectly measured by quantifying beta emission with liquid scintillation counting (Wallac 1450 MicroBeta TriLux Liquid Scintillation Counter & Lumi; GMI). Therefore, 200 μl Ultima Gold XR scintillation cocktail (PerkinElmer, MA, USA) was added to each well.
(§1) Half-maximal inhibitory concentrations (IC50) were obtained from fitting a sigmoidal dose–response ( Y=Bottom+Top−Bottom/1+10^((LogIC50−X)·HillSlope) ) in GraphPad Prism 10.3.1 (GraphPad Software Inc.). Uptake inhibition data were evaluated by one-way ANOVA followed by Tukey's multiple comparisons test. Release data were analyzed using a two-way ANOVA (batch release) or a mixed-effects model with Geisser-Greenhouse correction (time-dependent traces) employing Šidák correction for comparing differences between compounds with or without the addition of monensin.

rNET = target: T2, rNET (Rattus norvegicus, UniProt Q63380); assay: Uptake inhibition assay ([3H]norepinephrine) in rat brain synaptosomes; type: biochemical
T2 construct: As a means to evaluate transporter activity of prolintane analogs in native tissue preparation; from tissue; host or cells: rat brain synaptosomes (whole brain minus caudate and cerebellum)
Description: (§2) Rats were killed by CO2 narcosis and decapitated, then synaptosomes were prepared from brains using standard procedures. In brief, synaptosomes were prepared from caudate tissue for rat DAT (rDAT) assays, or from whole brain minus caudate and cerebellum for rat NET (rNET) and rat SERT (rSERT) assays. Brain tissue was homogenized in ice-cold 10% sucrose followed by centrifugation at 1000g for 10 min. The resulting supernatant containing crude synaptosomes was kept on ice until use in uptake or release procedures. Uptake inhibition and release assays were carried out as previously described ([62], [63]).
(§3) For uptake inhibition assays, 5 nM [^3H]dopamine, 10 nM [^3H]norepinephrine, or 5 nM [^3H]5-HT was used as the radiolabeled transmitter for rDAT, rNET, or rSERT, respectively. To optimize uptake for a single transporter, unlabeled blockers were included that prevented uptake of [^3H]transmitter by competing transporters: 50 nM GBR 12935 was added to NET and SERT assays to block DAT, 100 nM nomifensine was added to SERT assays to block NET. Uptake assays were initiated by adding 100 μl of tissue to 900 μl Krebs-phosphate buffer (126 mM NaCl, 2.4 mM KCl, 0.83 mM CaCl2, 0.8 mM MgCl2, 0.5 mM KH2PO4, 0.5 mM Na2SO4, 11.1 mM glucose, 0.05 mM pargyline, 1 mg/ml bovine serum albumin, and 1 mg/ml ascorbic acid, pH 7.4) containing test drug and [^3H]transmitter. Uptake assays were terminated by rapid vacuum filtration, and retained radioactivity was quantified with liquid scintillation counting.
(§4) Effects of test drugs on release and uptake inhibition were analyzed by nonlinear regression using GraphPad Prism 9 (GraphPad Scientific, San Diego, CA, USA). Concentration–response values for the uptake inhibition and release were fit to the equation, Y(x)=Ymin+Ymax−Ymin/1+10^((LogP50−LogX)·n) , where x is the concentration of the compound tested, Y(x) is the response measured, Ymax is the maximal response, P50 is either IC50 (the concentration that yields half-maximal uptake inhibition response) or EC50 (the concentration that yields half-maximal release response), and n is the Hill slope parameter.

hSERT [2] = target: T1, hSERT; type: cell-based; details: batch release, % efflux of total uptake, compounds approximately at IC50 concentration
Description: Batch release assays were performed as described previously ([44]). In brief, HEK293 cells stably expressing monoamine transporters were seeded similar to the procedure used for uptake inhibition assays. A day after seeding cells were pre-loaded with 50 μl/well 0.015 μM [^3H]MPP^+ (hDAT, hNET), or 0.08 μM [^3H]5-HT (hSERT) for 20 min at 37 °C. Then cells were washed four times for 3 to 4 min each and further incubated with KHB or KHB + monensin. After 10 min of incubation, two (screening) to four (full traces; hSERT) 2 min incubations were performed to establish a baseline release without substance. […] Each fraction was transferred to an empty well in the 96-well plate. For screening, a known inhibitor (hDAT, hNET: 50 μM GBR12909) and releaser (hDAT, hNET: 10 μM S-(+)-amphetamine) were used as controls. Ultima Gold XR scintillation cocktail was added to the remaining cells, and each well contained a release fraction. The counted radioactivity in the respective fraction was expressed as a percentage of total radioactivity at the start of the fraction.
as §1

rSERT = rSERT (Rattus norvegicus, UniProt P31652); assay: Uptake inhibition assay ([3H]5-HT) in rat brain synaptosomes; type: biochemical; parameters: As a means to evaluate transporter activity of prolintane analogs in native tissue preparation; from tissue; host or cells: rat brain synaptosomes (whole brain minus caudate and cerebellum)
Description: as §2, §3, §4

humans = system: humans; parameters: method as in PMID 4392006, PMID 7437258; details: dose range of 10–30 mg ref 15, 16; cited from earlier work
hSERT [3] = target: T1, hSERT; parameters: method as in PMID 30397775; details: cited from earlier work
mice = system: mice; parameters: method as in PMID 34896117; details: moderate and high doses ref 2; cited from earlier work

T1 sequence (P31645 whole entry): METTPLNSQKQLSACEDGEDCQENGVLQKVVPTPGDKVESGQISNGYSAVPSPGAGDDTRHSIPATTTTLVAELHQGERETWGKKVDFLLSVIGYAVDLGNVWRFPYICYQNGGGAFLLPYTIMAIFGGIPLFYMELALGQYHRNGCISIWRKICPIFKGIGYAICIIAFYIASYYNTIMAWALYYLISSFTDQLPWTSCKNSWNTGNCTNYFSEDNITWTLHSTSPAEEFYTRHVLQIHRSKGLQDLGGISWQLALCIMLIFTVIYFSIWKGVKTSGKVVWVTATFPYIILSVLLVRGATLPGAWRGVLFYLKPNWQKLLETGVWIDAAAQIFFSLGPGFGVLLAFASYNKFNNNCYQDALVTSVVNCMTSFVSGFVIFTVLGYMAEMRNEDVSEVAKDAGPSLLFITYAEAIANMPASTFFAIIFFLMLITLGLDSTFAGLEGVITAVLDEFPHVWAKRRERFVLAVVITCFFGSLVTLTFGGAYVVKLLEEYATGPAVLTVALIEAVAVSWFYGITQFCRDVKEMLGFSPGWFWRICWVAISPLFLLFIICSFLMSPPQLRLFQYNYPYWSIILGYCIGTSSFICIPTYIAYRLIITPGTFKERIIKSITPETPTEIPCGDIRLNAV
rSERT, sequence (P31652 whole entry): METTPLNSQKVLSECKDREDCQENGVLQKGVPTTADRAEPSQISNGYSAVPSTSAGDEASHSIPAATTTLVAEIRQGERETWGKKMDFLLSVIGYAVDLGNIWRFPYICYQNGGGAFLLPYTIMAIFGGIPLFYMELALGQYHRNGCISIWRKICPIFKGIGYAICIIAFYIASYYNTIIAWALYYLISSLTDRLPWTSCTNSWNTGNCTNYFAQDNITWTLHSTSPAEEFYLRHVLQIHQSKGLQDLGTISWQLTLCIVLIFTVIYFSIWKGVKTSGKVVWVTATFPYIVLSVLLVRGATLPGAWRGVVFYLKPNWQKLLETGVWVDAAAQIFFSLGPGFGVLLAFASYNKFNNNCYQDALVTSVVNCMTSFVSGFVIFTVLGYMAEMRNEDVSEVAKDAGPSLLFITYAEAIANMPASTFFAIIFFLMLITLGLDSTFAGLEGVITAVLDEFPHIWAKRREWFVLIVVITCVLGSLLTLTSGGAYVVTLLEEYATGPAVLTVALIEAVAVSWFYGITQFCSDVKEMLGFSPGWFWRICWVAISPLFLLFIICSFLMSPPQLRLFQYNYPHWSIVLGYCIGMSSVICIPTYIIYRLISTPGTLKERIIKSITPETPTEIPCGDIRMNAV
T2 sequence (Q63380 1-617): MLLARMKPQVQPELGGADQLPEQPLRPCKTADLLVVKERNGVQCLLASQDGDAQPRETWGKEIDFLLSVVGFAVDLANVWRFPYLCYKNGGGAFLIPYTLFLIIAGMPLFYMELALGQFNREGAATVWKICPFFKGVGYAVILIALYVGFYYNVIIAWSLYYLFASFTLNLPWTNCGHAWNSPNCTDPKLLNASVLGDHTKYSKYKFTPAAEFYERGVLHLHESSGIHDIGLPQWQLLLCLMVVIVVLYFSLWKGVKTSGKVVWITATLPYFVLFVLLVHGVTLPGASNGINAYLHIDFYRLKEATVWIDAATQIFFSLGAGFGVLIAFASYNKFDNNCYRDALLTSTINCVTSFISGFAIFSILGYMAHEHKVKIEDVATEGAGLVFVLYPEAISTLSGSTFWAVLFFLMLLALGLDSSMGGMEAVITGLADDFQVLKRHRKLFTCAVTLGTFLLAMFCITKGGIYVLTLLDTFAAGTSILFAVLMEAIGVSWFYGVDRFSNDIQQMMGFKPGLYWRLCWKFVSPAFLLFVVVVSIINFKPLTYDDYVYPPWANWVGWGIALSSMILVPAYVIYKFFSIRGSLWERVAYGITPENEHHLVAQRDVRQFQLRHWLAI

SMILES	IC50 (hSERT [1])	IC50 (rNET)	hSERT-mediated efflux, predicted (LS) mean diff, No mon - Mon (hSERT [2])	IC50 (rSERT; read-out: [3H]5-HT uptake SERT IC50, rat isoform (r), rat brain synaptosomes, mean ± SD)	IC50 (rSERT)	clinical effects (humans)	IC50 at hSERT, fold weaker than at hDAT and hNET (hSERT [1]; HEK293 cells)	effects at hSERT, fold weaker than at hDAT and hNET (hSERT [3])	abuse-related behavioural effects (mice)	IC50 at rSERT, fold weaker than at rDAT and rNET (rSERT; rat brain synaptosomes)	inhibitory potency at hSERT compared to pyrovalerone, fold greater (hSERT [1]; pyrovalerone value ref 53)
CCCC(Cc1ccccc1C)N1CCCC1 (stereo not shown) [2-Methylprolintane, 1-[1-(2-methylphenyl)pentan-2-yl]pyrrolidine]	4250 ± 1780 nM	138 ± 13 nM	-4.459	323 ± 280 nM	–	–	–	–	–	–	–
CCCC(Cc1cccc(C)c1)N1CCCC1 (stereo not shown) [3-Methylprolintane, 1-[1-(3-methylphenyl)pentan-2-yl]pyrrolidine]	2950 ± 541 nM	62 ± 9 nM	-5.6	–	139 ± 14 nM	–	–	–	–	–	–
CCCC(Cc1ccccc1)N1CCCC1 (stereo not shown) [Prolintane, 1-(1-phenylpentan-2-yl)pyrrolidine]	28600 ± 4010 nM	39 ± 4 nM	-7.218	–	2320 ± 169 nM	dose-dependent psychostimulant effects, sympathomimetic effects and reduced total rapid eye movement (REM) sleep	more than 500 fold	approximately 10 fold	rewarding and reinforcing effects	about 50 fold	–
CCCC(Cc1cccc(F)c1)N1CCCC1 (stereo not shown) [3-Fluoroprolintane, 1-[1-(3-fluorophenyl)pentan-2-yl]pyrrolidine]	13500 ± 1840 nM	28 ± 3 nM	-5.404	–	521 ± 116 nM	–	–	–	–	–	–
CCCC(Cc1ccccc1F)N1CCCC1 (stereo not shown) [2-Fluoroprolintane, 1-[1-(2-fluorophenyl)pentan-2-yl]pyrrolidine]	35200 ± 9250 nM	63 ± 6 nM	-6.392	–	2230 ± 152 nM	–	–	–	–	–	–
CCCC(Cc1ccc(C)cc1)N1CCCC1 (stereo not shown) [4-Methylprolintane, 1-[1-(4-methylphenyl)pentan-2-yl]pyrrolidine]	2560 ± 515 nM	45 ± 5 nM	-4.314	–	72 ± 5 nM	–	–	–	–	–	10 fold
CCCC(Cc1ccc(F)cc1)N1CCCC1 (stereo not shown) [4-Fluoroprolintane, 1-[1-(4-fluorophenyl)pentan-2-yl]pyrrolidine]	19600 ± 2430 nM	217 ± 21 nM	-7.206	–	884 ± 78 nM	–	–	–	–	–	–
